Laboratory results as given in patent US5235045A, “Non-azo naphthalimide dyes” (priority 1992, dated 1993).
Read-outs that look alike come from different tables or passages of the source.

Key:
[1] = Cell viability in absence of light (trypan blue exclusion); type: cell-based, human; details: dark, 1 hour after
Description: (§1) Following the protocol of (1), above, H9 cells were stained with Compound lb, and the technique of fluorescent microscopy was used to determine visually the sites of localization of dye fluorescence in living cells. Specifically, H9 cells were counted with a hemocytometer and diluted to 5×10^5 /ml. […] Cytospin slides of the cell suspensions were made and they were examined with the fluorescence microscope (Olympus AH-2) using B excitation plus a 460 nm interference excitation filter and a 495 nm emission filter. The cells were also counted with a hemocytometer and their viability determined (see below). […] The former may reflect the diffusional component of the dye incorporation, or may reflect binding in the ER membrane. The latter may indicate lysosomal localization of pinocytosed dye as occurs with Lucifer Yellow.
(§2) Cell viability was determined using dye incorporated according to the protocol directly above. Viability was determined using a trypan blue dye exclusion test in which "live" cells with competent cell membranes exclude the dye. Table 5 summarizes the data obtained using cells exposed to Compound 1b in culture medium, and Table 6 summarizes data obtained using cells exposed to Compound VII.

[2] = tested on: H9 cells; assay: as above; type: cell-based, human; details: dark, 1 hour after
Description: as §1, §2

[3] = tested on: H9 cells; assay: Dye-mediated light kill of H9 cells (trypan blue); type: cell-based; details: Homo sapiens, 10% FCS medium, read-out: Percent Viability
Experimental: Photoinduced killing of H9 cells with Compound 1b as the mediator of photochemical toxicity were carried out according to the following protocol:
Compound 1b was added to the H9 cells (5×10^5 /ml) in medium or 100% human plasma to give dye concentrations of 0, 25 and 100 μM (1 control, 2 duplicates of both non-azo dye samples). Two 2-ml aliquots of each of the duplicated dye samples was irradiated with 10J/cm^2 total energy of 450±35 nm wavelength light in a sealed 3-ml test tube. Immediately after irradiation, the cells were centrifuged at 450×g for 10 minutes, and the pellets resuspended in the original volume of fresh RPMI-1640+10% FCS+gentamycin. The cell suspensions were transferred to a 12-well TC plate and placed in a 37° C. 5% CO2 incubator. Cell viability counts (trypan blue) were carried out at 4, 24, 48, and 72 hours post irradiation. The results of these experiments are summarized in Tables 7 (medium) and 8 (100% human plasma).
Photoinduced killing of H9 cells with Compound VII as the mediator of photochemical toxicity were carried out in 10% FCS medium according to the same general protocol using concentrations of the dye at 0, 5, 25 and 100 μM., and irradiating at 420±5 nm at 10J/cm^2 total energy.

[4] = Bleaching and recovery of fluorescence in aqueous suspension of Cremophor EL; type: physicochemical
Experimental: A 14.9 millimolar stock solution of Ed6Br in Cremophor EL was used to make 3 ml of a micellar Cremophor suspension having a concentration averaged over the entire sample volume of […]. A […] aliquot was removed and diluted with 2.9 ml of distilled water for measurement of fluorescence using an SLM 500C spectrofluorometer (excitation, 420 nm, emission, 520 nm). The 3 ml sample was divided into two 1.5 ml aliquots placed in quartz crusetts. One sample was irradiated with stirring with 420 # 5 nm filtered light from a xenon arc lamp with an irradiance of 20 mW/cm^2 and with the companion sample wrapped in aluminum foil (dark control) and maintained alongside of the irradiated sample. […] After the entire light treatment, both the illuminated and dark control samples were divided into two equal aliquots and held pairwise (dark+previously illuminated) at 4° C. and 20° C. in the absence of light. Aliquots of […] were taken from each sample after 18 and 43 hr and their fluorescence emission values determined using the SLM 500C instrument immediately after sampling.
In an experiment eventually following the protocol described immediately above in Part I (for Ed6Br), the light-induced bleaching of DiEd6Br with 200 J/cm^2 light exposure and recovery of its fluorescence upon standing in the dark at 22° C. were determined.

[5] = 1 μM, 100% human plasma 4 hours
[6] = 5 μM, 100% human plasma 4 hours
[7] = 25 μM, 100% human plasma 4 hours
[8] = H9, light or radiation study, 4 h, hν 420±5 nm 10J/cm^2, 4 hours

## CCCCCCNc1c(Br)cc2c3c(cccc13)C(=O)N(CCCCCC)C2=O [Compound VII, 3-bromo-4-(hexyl)amino-N-hexyl-1,8-naphthalimide]
[1]; [5]
  viability at 4 h, 1 µM: 95.9%
[1]; [6]
  viability at 4 h, 5 µM: 94.7%
[1]; [7]
  viability at 4 h, 25 µM: 95.5%
[1]; human, 1 μM, medium 24 hours
  viability at 24 h, 1 µM: 86.8%
[1]; human, 10 μM, medium 24 hours
  viability at 24 h, 10 µM: 80%
[1]; human, 25 μM, medium 24 hours
  viability at 24 h, 25 µM: 79.6%
[1]; human, 50 μM, medium 24 hours
  viability at 24 h, 50 µM: 42.5%
[2]; [5]
  dead cells: 12
  live cells: 280
[2]; 1 μM, medium 24 hours
  dead cells: 23
  live cells: 151
[2]; [6]
  dead cells: 16
  live cells: 286
[2]; 10 μM, medium 24 hours
  dead cells: 26
  live cells: 104
[2]; [7]
  dead cells: 16
  live cells: 339
[2]; 25 μM, medium 24 hours
  dead cells: 38
  live cells: 148
[2]; 50 μM, medium 24 hours
  dead cells: 128
  live cells: 124
[3]; H9, 4 h, no hν, 4 hours
  viability at 5 µM: 86.5%
[3]; H9, 4 h, no hν, 4 hours (Table 9)
  viability at 25 µM: 90%
[3]; [8]
  viability at 5 µM: 0%
  viability at 25 µM: 0%
[3]; H9, light or radiation study, 4 h, 100 μM, hν 420±5 nm 10J/cm^2, 4 hours, light reached only approximately 2 mm
  viability at 100 µM: 1.8%
[4]; 0 J/cm^2, Cremophor EL
  % Un-irradiated Fluorescence: 100%
[4]; 0 hour, 4° C.
  Fluorescence Recovery in Dark: 18.2%
[4]; 0 hour, 22° C.
  Fluorescence Recovery in Dark: 18.2%
[4]; 10 J/cm^2, 420 nm, Cremophor EL
  % Un-irradiated Fluorescence: 97.8%
[4]; 25 J/cm^2, 420 nm, Cremophor EL
  % Un-irradiated Fluorescence: 96.2%
[4]; 50 J/cm^2, 420 nm, Cremophor EL
  % Un-irradiated Fluorescence: 74.9%
[4]; 90 J/cm^2, 420 nm, Cremophor EL
  % Un-irradiated Fluorescence: 48.7%
[4]; 200 J/cm^2
  irradiation induced loss of fluorescent intensity: about 80%
[4]; 200 J/cm^2, 420 nm, Cremophor EL
  % Un-irradiated Fluorescence: 18.2%
[4]; 18 hour, 4° C.
  Fluorescence Recovery in Dark: 24.6%
[4]; 18 hour, 22° C.
  Fluorescence Recovery in Dark: 39.4%
[4]; 43 hour, 4° C.
  Fluorescence Recovery in Dark: 36.8%
[4]; 43 hour, 22° C.
  Fluorescence Recovery in Dark: 56.7%
[4]; Cremophor EL
  initially activated species permanently losing fluorescence: Approximately 50%
  initially activated species recovering fluorescence: Approximately 50%
[4]; after 200 J/cm^2
  ultimate fluorescent intensity regained, of initial: approximately 40%
[4]; dark
  change of fluorescence emission intensity in absence of light: lack of change of the value of fluorescence emission intensity
